{
  "source": "paper PMC11945486",
  "about": "“TAS1R2/TAS1R3 Single-Nucleotide Polymorphisms Affect Sweet Taste Receptor Activation by Sweeteners: The SWEET Project” (Nutrients, 2025)",
  "target": "T1, human TAS1R2-I234V (subunit alone) (Homo sapiens, UniProt Q8TE23, I234V)",
  "T1 construct": "expressed in transfected cells; host or cells: HEK293T-Gα16gust44",
  "T1 sequence (Q8TE23 20-839 I234V)": "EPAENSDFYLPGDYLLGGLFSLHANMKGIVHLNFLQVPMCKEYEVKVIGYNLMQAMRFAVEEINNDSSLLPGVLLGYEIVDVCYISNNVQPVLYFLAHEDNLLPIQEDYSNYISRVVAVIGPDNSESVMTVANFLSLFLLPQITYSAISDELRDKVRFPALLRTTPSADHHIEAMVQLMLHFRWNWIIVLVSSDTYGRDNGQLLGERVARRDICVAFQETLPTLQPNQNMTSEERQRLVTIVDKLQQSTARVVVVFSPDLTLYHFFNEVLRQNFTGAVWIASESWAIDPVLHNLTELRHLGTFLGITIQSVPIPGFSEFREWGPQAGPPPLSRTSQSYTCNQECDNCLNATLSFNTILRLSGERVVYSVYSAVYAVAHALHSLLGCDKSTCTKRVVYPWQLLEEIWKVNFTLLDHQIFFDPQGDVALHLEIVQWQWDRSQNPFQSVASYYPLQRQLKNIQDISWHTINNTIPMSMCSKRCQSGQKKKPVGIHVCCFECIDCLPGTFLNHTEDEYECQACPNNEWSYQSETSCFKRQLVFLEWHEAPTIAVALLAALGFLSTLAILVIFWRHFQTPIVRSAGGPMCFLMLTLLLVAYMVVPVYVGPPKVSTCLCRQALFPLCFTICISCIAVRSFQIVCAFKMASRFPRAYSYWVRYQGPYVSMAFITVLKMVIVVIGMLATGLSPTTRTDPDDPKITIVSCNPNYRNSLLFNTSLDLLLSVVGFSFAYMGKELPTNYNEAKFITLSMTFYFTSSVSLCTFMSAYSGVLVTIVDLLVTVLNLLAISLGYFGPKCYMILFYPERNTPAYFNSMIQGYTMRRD",
  "assay": "Calcium mobilisation assay, TAS1R2-I234V subunit alone",
  "assay_type": "cell-based",
  "source_text": "The coding sequences for TAS1R2 and TAS1R3 were commercially synthesised, and the human codon was optimised for expression in human cells. The coding sequences of human TAS1R2 and TAS1R3 were subcloned and inserted into the mammalian expression vectors pcDNA6/myc-HisA and pcDNA4/myc-HisA (Invitrogen; Thermo Fisher Scientific; Illkirch, France) between the EcoRI and NotI restriction sites, generating the plasmids pcDNA6-TAS1R2 and pcDNA4-TAS1R3, respectively. To increase protein expression in mammalian cells, an upstream start codon was used, which was a sequence called MAX, corresponding to the QBI SP163 element also described in pcDNA4-HisMax (Invitrogen; Thermo Fisher Scientific; Illkirch, France). To measure the expression level of the receptor by immunohistochemistry, we used the FLAG sequence ([…]) in the C-terminal position, which encodes the FLAG tag epitope. […]\nThe HEK293T cells were kindly provided by Jay P. Slack (Givaudan Flavors Corporation; Cincinnati, OH, USA). […] The fluorescence intensity was measured for 90 s (excitation 488 nm, emission 510 nm) in an automated fluorometric FlexStation®3 Multi-Mode microplate reader (Molecular Devices; San Jose, CA, USA). […] The Ca^2+ changes were expressed as fractional changes in fluorescent light intensity: ΔF/F = (F − F0)/F0, where F was the fluorescent light intensity at each point, and F0 was the value of emitted fluorescent light prior to stimulus application. To calculate dose–response relationships, the changes in fluorescence upon stimulus application were averaged, mock-subtracted and baseline-corrected. […] The half-maximal effective concentrations (EC50 values) and maximal signal amplitudes were calculated using SigmaPlot software (version 15.0) (Systat Software; San Jose, CA, USA).\nFor in vitro calcium mobilisation assay performed on hTAS1R2-SNPs, hTAS1R3-SNPs and mTAS1R3-I60T, 6 to 7 concentrations were tested for each sweet compound, plus buffer alone. All concentration–receptor combinations were measured in duplicate, and each experiment was repeated at least 4 times (8 wells/concentration). […]",
  "data": [
    {"smiles": "C=C(C)[C@@H]1CC=C(/C=N/O)CC1", "note": "[Perillartine, perillartine]", "values": [
      {"measurement": "EC50", "result": "311 ± 24.6", "unit": "µM"},
      {"measurement": "R1 = Variant EC50/WT EC50", "result": 3.5},
      {"measurement": "Max ΔF/F0", "setting": "maximal signal amplitude", "result": "0.29 ± 0.01"}
    ]}
  ]
}
